From US11090304B2 (Amgen Inc., priority 2018, dated 2021)
Like-named read-outs stand apart in the source and are kept apart here.

How the values were obtained:
[1] = tested on: Phosphorylation of ERK1/2 in MIA PaCa-2 cells; test: Phospho-ERK1/2 MSD assay in MIA PaCa-2 cells; assay type: cell-based
Method in brief: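 In the procedure, cells were plated a day ahead at 25,000 per well. Next, a dilution series of compound in growth medium was added for 2 or 4 h. EGF (10 ng/mL) stimulation for 10 min preceded washing and RIPA lysis. Lysate phospho-ERK1/2 was read by MSD, with IC50 derived by 4-parameter logistic analysis.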

[2] = target: GDP-bound KRAS protein (aa 1-169), containing both G12C and C118A amino acid substitutions (Homo sapiens, UniProt P01116, C118A/G12C); test: Coupled nucleotide exchange assay (SOS-mediated, AlphaScreen); assay type: biochemical; settings: for Coupled exchange IC50 (5 min): 5 min compound pre-incubation
[3] = Homo sapiens, MIA PaCa-2, 2 h, read-out: p-ERK IC50 (2 h; MIA PaCa-2), 2 h compound treatment
[4] = read-out: p-ERK IC50 (2 h; MIA PaCa-2), 2 h compound treatment

GDP-bound KRAS protein (aa 1-169), containing both G12C and C118A amino acid substitutions, sequence (P01116 1-169 isoform P01116-2 G12C/C118A): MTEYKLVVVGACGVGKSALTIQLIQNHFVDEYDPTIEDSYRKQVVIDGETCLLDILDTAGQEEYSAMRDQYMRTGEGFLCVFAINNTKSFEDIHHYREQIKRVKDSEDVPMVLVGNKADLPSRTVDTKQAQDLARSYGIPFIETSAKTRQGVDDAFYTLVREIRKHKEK

SMILES	IC50 [1, 3] [nM]	Coupled exchange IC50 (5 min) [2]	further results
C=CC(=O)N1CCN(c2nc(=O)n(-c3c(C)cccc3C(C)C)c3nc(-c4c(C)ccc5[nH]ncc45)c(F)cc23)[C@@H](C)C1 (single isomer, unassigned) [Example 68-2-2]	607	0.31 | nda μM	
C=CC(=O)N1CCN(c2nc(=O)n(-c3c(C)cccc3C(C)C)c3nc(-c4nc(N)ccc4Cl)c(F)cc23)[C@@H](C)C1 (single isomer, unassigned) [Example 71-1-1]	725	0.49 | nda μM	
C=CC(=O)N1CCN(c2nc(=O)n(-c3ccccc3C(C)C)c3nc(-c4ccccc4F)c(C)cc23)[C@@H](C)C1 (single isomer, unassigned) [Example 74-1-2]	152	0.118 | nda μM	
C=CC(=O)N1CCN(c2nc(=O)n(-c3c(C)ccnc3C(C)C)c3nc(-c4ccccc4F)c(C)cc23)[C@@H](C)C1 (single isomer, unassigned) [Example 74-2-1]		0.26 | nda μM	IC50 [1, 4]: 136 nM
C=CC(=O)N1CCN(c2nc(=O)n(-c3c(C)ccnc3C(C)C)c3nc(-c4ccccc4F)c(C)cc23)[C@@H](C)C1 (single isomer, unassigned) [Example 74-2-2]		2.325 | nda μM	IC50 [1, 4]: 1040 nM
C=CC(=O)N1CCN(c2nc(=O)n(-c3c(C)ccnc3C(C)C)c3nc(-c4c(O)cccc4F)c(C)cc23)[C@@H](C)C1 (single isomer, unassigned) [Example 74-3-1]	103	0.05 | nda μM	
C=CC(=O)N1CCN(c2nc(=O)n(-c3c(C)ccnc3C(C)C)c3nc(-c4c(O)cccc4F)c(F)cc23)C[C@H]1C (single isomer, unassigned) [Example 75-2]	306	0.493 | nda μM	
C=CC(=O)N1CCN(c2nc(=O)n(-c3c(C)ccnc3C(C)C)c3nc(-c4c(O)cccc4F)c(F)cc23)CC1 (single isomer, unassigned) [Example 75-4, (M)-6-fluoro-7-(2-fluoro-6-hydroxyphenyl)-1-(4-methyl-2-(2-propanyl)-3-pyridinyl)-4-(4-(2-propenoyl)-1-piperazinyl)pyrido[2,3-d]pyrimidin-2(1H)-one]	543	0.552 | nda μM	
C=CC(=O)N1C[C@@H](C)N(c2nc(=O)n(-c3c(C)ccnc3C(C)C)c3nc(-c4c(N)cccc4F)c(F)cc23)[C@@H](C)C1 (single isomer, unassigned) [Example 75-8]	38	0.023 | nda μM	
C=CC(=O)N1CCN(c2nc(=O)n(-c3c(C)ccnc3C(C)C)c3nc(-c4c(O)cccc4F)c(F)cc23)[C@@H](C(F)F)C1 (single isomer, unassigned) [Example 75-9-2, (M)-4-((2S or 2R)-2-(difluoromethyl)-4-(2-propenoyl)-1-piperazinyl)-6-fluoro-7-(2-fluoro-6-hydroxyphenyl)-1-(4-methyl-2-(2-propanyl)-3-pyridinyl)pyrido[2,3-d]pyrimidin-2(1H)-one]		0.136 | nda μM	IC50 ([1]; Homo sapiens, read-out: p-ERK IC50 (2 h; MIA PaCa-2), 2 h compound treatment): 113 nM
C=CC(=O)N1[C@@H]2CCC[C@H]1CN(c1nc(=O)n(-c3c(C)ccnc3C(C)C)c3nc(-c4ccccc4F)c(Cl)cc13)C2 (single isomer, unassigned) [Example 78-2, (M)-6-chloro-7-(2-fluorophenyl)-1-(4-methyl-2-(2-propanyl)-3-pyridinyl)-4-(9-(2-propenoyl)-3,9-diazabicyclo[3.3.1]nonan-3-yl)pyrido[2,3-d]pyrimidin-2(1H)-one]	376	0.436 | nda μM	
C=CC(=O)N1CCN(c2nc(=O)n(-c3c(C)ccnc3C(C)C)c3nc(-c4ccccc4F)c(Cl)cc23)[C@@H](C(F)F)C1 (single isomer, unassigned) [Example 78-3-2]	80	0.094 | nda μM	
C=CC(=O)N1CCN(c2nc(=O)n(-c3c(C)ccnc3C(C)C)c3nc(-c4ccccc4F)c(Cl)cc23)[C@H](C(F)F)C1 (single isomer, unassigned) [Example 78-3]	246	0.141 | nda μM	
C=CC(=O)N1CCN(c2nc(=O)n(-c3c(C)ccnc3C(C)C)c3nc(-c4ccccc4F)c(Cl)cc23)C(CF)C1 (single isomer, unassigned) [Example 78-5, (M)-6-chloro-4-(2-(fluoromethyl)-4-(2-propenoyl)-1-piperazinyl)-7-(2-fluorophenyl)-1-(4-methyl-2-(2-propanyl)-3-pyridinyl)pyrido[2,3-d]pyrimidin-2(1H)-one]	2610	0.349 | nda μM	
C=CC(=O)N1C[C@@H](C)N(c2nc(=O)n(-c3c(C)ccnc3C(C)C)c3nc(-c4ccccc4F)c(Cl)cc23)[C@@H](C)C1 (single isomer, unassigned) [Example 78-7, (M)-6-chloro-4-(cis-2,6-dimethyl-4-(2-propenoyl)-1-piperazinyl)-7-(2-fluorophenyl)-1-(4-methyl-2-(2-propanyl)-3-pyridinyl)pyrido[2,3-d]pyrimidin-2(1H)-one]	23	0.034 | nda μM	
C=CC(=O)N1C[C@H](C)N(c2nc(=O)n(-c3c(C)ccnc3C(C)C)c3nc(-c4ccccc4F)c(Cl)cc23)[C@@H](C)C1 (single isomer, unassigned) [Example 78-8]	10	0.026 | nda μM	
C=CC(=O)N1CCN(c2nc(=O)n(-c3c(C)ccnc3C(C)C)c3nc(-c4ccccc4F)c(Cl)cc23)C(C(F)(F)F)C1 (single isomer, unassigned) [Example 78-9, (M)-6-chloro-7-(2-fluorophenyl)-1-(4-methyl-2-(2-propanyl)-3-pyridinyl)-4-(4-(2-propenoyl)-2-(trifluoromethyl)-1-piperazinyl)pyrido[2,3-d]pyrimidin-2(1H)-one]	348	0.515 | nda μM	
C=CC(=O)N1CCN(c2nc(=O)n(-c3c(C)ccnc3C(C)C)c3nc(-c4ccccc4F)c(Cl)cc23)[C@@H](CO)C1 (single isomer, unassigned) [Example 78-14]	81	0.133 | nda μM	
C=CC(=O)N1CCN(c2nc(=O)n(-c3c(C)ccnc3C(C)C)c3nc(-c4ccccc4F)c(Cl)cc23)CC1 (single isomer, unassigned) [Example 78-15, (M)-6-chloro-7-(2-fluorophenyl)-1-(4-methyl-2-(2-propanyl)-3-pyridinyl)-4-(4-(2-propenoyl)-1-piperazinyl)pyrido[2,3-d]pyrimidin-2(1H)-one]	61	0.124 | nda μM	
C=CC(=O)N1CCN(c2nc(=O)n(-c3c(C)cc(CN(C)C)cc3C(C)C)c3nc(-c4ccccc4F)c(Cl)cc23)[C@@H](C)C1 (single isomer, unassigned) [Example 80-1-1]		0.044 | nda μM	IC50 [1, 4]: 29 nM
C=CC(=O)N1CCN(c2nc(=O)n(-c3c(C)cc(CN(C)C)cc3C(C)C)c3nc(-c4ccccc4F)c(Cl)cc23)[C@@H](C)C1 (single isomer, unassigned) [Example 80-1-2]		0.556 | nda μM	IC50 [1, 4]: 236 nM
C=CC(=O)N1CCN(c2nc(=O)n(-c3c(C)cc(CO)cc3C(C)C)c3nc(-c4ccccc4F)c(Cl)cc23)[C@@H](C)C1 (single isomer, unassigned) [Example 80-2-2]	47	0.048 | nda μM	
C=CC(=O)N1CCN(c2nc(=O)n(-c3c(C)ccnc3C(C)C)c3nc(-c4c(F)ccc5[nH]ncc45)c(Cl)cc23)[C@@H](C)C1 (single isomer, unassigned) [Example 82-2]	239	0.096 | nda μM	
C=CC(=O)N1CCN(c2nc(=O)n(-c3c(C(C)C)ncc(O)c3C)c3nc(-c4ccccc4F)c(Cl)cc23)[C@@H](C)C1 (single isomer, unassigned) [Example 83-2]	84	0.035 | nda μM	
C=CC(=O)N1CCN(c2nc(=O)n(-c3c(CO)ccnc3C(C)C)c3nc(-c4ccccc4F)c(Cl)cc23)[C@@H](C)C1 (single isomer, unassigned) [Example 84-2]	43	0.058 | nda μM	
C=CC(=O)N1CCN(c2nc(=O)n(-c3ccccc3C(C)C)c3c(C)c(-c4c(O)cccc4F)c(Cl)cc23)[C@@H](C)C1 (single isomer, unassigned) [Example 90-2]		0.151 µM	IC50 ([1]; read-out: p-ERK IC50 (4 h; MIA PaCa-2), 4 h compound treatment): 111 nM; Coupled exchange IC50 (2 h) ([2]; 2 h compound pre-incubation): 175 nM
C=CC(=O)N1CCN(c2nc(=O)n(-c3ccccc3C(C)C)c3nc(-c4c(F)cccc4C#N)c(Cl)cc23)[C@@H](C)C1 (single isomer, unassigned) [Example 98-1]	155	0.193 | nda μM	
